Data: patent US20020019378A1, “COMPOUNDS” (priority 1997, published 2002)

Experiments:
[1] = molecular target: T1, Human Glucocorticoid Receptor (Homo sapiens, UniProt P04150); assay: Functional in vitro glucocorticoid activity assay: Hela cells stably transfected with sPAP reporter gene under MMTV LTR promoter; type: cell-based; conditions: 72 hours incubation, values given as 'less than (about)', read-out: EC50 (sPAP transcription, glucocorticoid activity)
T1 construct: endogenous in cells; host or cells: HeLa cells stably transfected with an MMTV-LTR sPAP reporter
T1 sequence (P04150 1-777): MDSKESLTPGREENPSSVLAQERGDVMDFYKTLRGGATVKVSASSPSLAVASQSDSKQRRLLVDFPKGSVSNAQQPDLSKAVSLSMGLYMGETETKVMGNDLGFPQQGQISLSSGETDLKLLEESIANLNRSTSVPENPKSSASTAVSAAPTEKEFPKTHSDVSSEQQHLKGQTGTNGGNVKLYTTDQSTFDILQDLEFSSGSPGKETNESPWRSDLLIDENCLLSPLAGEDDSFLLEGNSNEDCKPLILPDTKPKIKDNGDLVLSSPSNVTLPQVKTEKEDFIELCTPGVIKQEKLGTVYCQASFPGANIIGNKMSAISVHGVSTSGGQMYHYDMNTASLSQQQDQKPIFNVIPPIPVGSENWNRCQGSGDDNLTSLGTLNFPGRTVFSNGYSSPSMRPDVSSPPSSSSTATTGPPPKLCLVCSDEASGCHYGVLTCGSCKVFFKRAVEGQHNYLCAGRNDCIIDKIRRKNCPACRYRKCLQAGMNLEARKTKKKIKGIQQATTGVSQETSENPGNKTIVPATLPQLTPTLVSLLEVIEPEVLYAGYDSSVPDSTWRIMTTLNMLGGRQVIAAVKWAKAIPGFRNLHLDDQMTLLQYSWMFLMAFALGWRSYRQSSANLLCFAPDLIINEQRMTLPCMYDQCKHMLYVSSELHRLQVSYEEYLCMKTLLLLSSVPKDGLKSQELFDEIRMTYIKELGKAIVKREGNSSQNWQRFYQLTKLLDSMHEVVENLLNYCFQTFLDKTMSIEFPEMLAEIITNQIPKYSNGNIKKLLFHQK
Excerpt: The functional assay used was a modification of the method described by T. S Berger et al, of J. of Steroid Biochem. Molec. Biol. 1992, 41 (3-8), 733-738, “Interaction of Glucocorticoid analogues with the Human Glucocorticoid Receptor”. Thus, Hela cells were stably transfected with a detectable reporter gene (secreted placental alkaline phosphatase, sPAP) under the control of a glucocorticoid response promoter (the LTR of the mouse mammary tumour virus, MMTV). Various concentrations of standard (dexamethasone) or compounds of the invention were incubated with transfected Hela cells for 72 hours. At the end of the incubation, substrate ([…]) for sPAP was added and the product measured by a spectrophotometric method. Increased absorbance reflected increased sPAP transcription and concentration-response lines were constructed such that EC50-values could be estimated.

[2] = Stability in human plasma test method; type: in vitro ADME; conditions: 37° C.
Method: The stability of various of the compounds of the Examples in human plasma was tested using the following ‘stability in human plasma’ test method: 500 μl aliquots of human plasma in screw capped polypropylene tubes were preincubated at 37° C. in a waterbath for 5 minutes. The plasma samples were then spiked with 5 μl of test compound (nominally 5 mg/ml in DMSO). Aliquots (100 μl ) were removed immediately and after 5 minutes and mixed with an equal volume of acetonitrile. The samples were centrifuged and the supernatants were transferred to autosampler vials for HPLC and half-life analysis.
(§1) In the HPLC procedure, aliquots (20 μl) of all the supernatants were injected onto a Zorbax Rx C8 column (250×4.6mm; Hichrom). The column was maintained at 40° C. and eluted at a flow rate of 1.0 mL/min with a mobile phase of acetonitrile: 50 mM ammonium formate (65:35) adjusted to pH 4.2 with formic acid. Detection was by UV absorbance at 240 nm, and chromatographic peak areas for both parent and metabolite were measured
To determine the half-life, for each compound peak areas were plotted against time on a log-linear scale, and the half lives determined by extrapolation or interpolation of a straight line joining two points.

human serum paraoxonase = human serum paraoxonase (Homo sapiens, UniProt P27169); assay: Hydrolysis by human serum paraoxonase (enzymatic hydrolysis test method); type: in vitro ADME; conditions: 5% bovine serum albumin, 20 mM CaCl2, 37° C.
Method: The compounds herein have relatively short half-lives in blood in vitro. A test method for determining the half-life of the compounds under defined enzymatic hydrolysis conditions in vitro is now described. The test method is believed to provide a suitable indicator as to effects in vivo. In the test method, the hydrolysis of test compounds by a lactonase enzyme is monitored using RP HPLC with UV detection.
The ‘enzymatic hydrolysis test method’ is as follows: Incubations are carried out in 1 ml volumes in an aqueous medium containing 5% bovine serum albumin in the presence of 20 mM CaCl2. The solutions are preincubated at 37° C. for 5 minutes before the addition of the test compound (5 μl of a 5 mg/ml solution in DMSO) and then lactonase enzyme (10 μl to the 1 ml incubations). Control incubations containing no enzyme are also included. The enzymatic hydrolysis is monitored by removal of aliquots and quenching the reaction by the addition of an equal volume of acetonitrile. The samples are vortex mixed, then centrifuged and the supernatants are transferred to autosampler vials for HPLC analysis.
as §1, with “In a suitable” for “In the”, “of” for “of all”, “supernatants are” for “supernatants were”, “column is” for “column was”, “Detection is” for “Detection was”, “metabolite are measured.” for “metabolite were measured”
In a preferred aspect, the half-life of each compound may be determined by a method in which peak areas are plotted against time on a log-linear scale, and the half lives determined by extrapolation or interpolation of a straight line joining two points.
The above described ‘enzymatic hydrolysis test method’ employs lactonase enzyme. Suitable forms of lactonase enzyme include human serum paraoxonase or a recombinant form thereof, or purified lactonase, obtained from human plasma as described hereinafter. Purification of human serum paraoxonase is described by C E Furlong et al, Chem.Biol.Interactions, Vol 87, p35-48, (1993) and recombinant human serum paraoxonase is described in International Patent application No. WO 96/01322
The susceptibility to hydrolysis by human serum paraoxonase of certain of the compounds of the Examples was assessed using the test protocol of the ‘enzymatic hydrolysis test method’ described herein.

[3] = Stability in human lung S9; type: in vitro ADME; conditions: human lung S9 diluted 1:1 with phosphate buffer pH 7.4, NADPH, 37° C.
Method: The stability of the compound of Examples 4 and 6 in a model human lung environment was assessed using the following test protocol: Incubations were carried out, at 37° C., in 500 μL volumes of human lung S9 diluted 1:1 with 10 mM phosphate buffer pH 7.4 to which was added 50 μl of 30 mg/ml (Aq) NADPH. The reactions were started by the addition of 5 μl of test compound (nominally 5 mg/ml solution in DMSO). Aliquots (100 μl) were removed immediately and after 1 hour and mixed with an equal volume of acetonitrile to stop the reaction. Samples were centrifuged and the supernatants were transferred to autosampler vials for HPLC analysis and half-life analysis using methods identical to those described in the ‘stability in human plasma’ test protocol described above. Control incubations containing no lung S9 were also included.

human serum paraoxonase, sequence (P27169 whole entry): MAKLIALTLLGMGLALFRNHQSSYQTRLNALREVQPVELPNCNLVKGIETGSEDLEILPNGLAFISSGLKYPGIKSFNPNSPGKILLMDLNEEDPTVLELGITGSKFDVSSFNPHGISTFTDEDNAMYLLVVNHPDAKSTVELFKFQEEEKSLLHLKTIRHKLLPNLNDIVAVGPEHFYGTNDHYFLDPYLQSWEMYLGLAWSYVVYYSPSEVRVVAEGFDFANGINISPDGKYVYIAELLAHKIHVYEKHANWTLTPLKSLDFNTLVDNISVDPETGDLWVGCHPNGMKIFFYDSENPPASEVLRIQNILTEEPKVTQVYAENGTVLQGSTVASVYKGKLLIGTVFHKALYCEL

For `CC12CCC(=O)C=C1C(F)CC1C3CC4OC(CSC5CCOC5=O)OC4(C(=O)CO)C3(C)CC(O)C12F` (stereo not drawn) [Example 4, 6α,9α-Difluoro-11β,21-dihydroxy-16α, 17α-[2-(2-oxo-tetrahydro-furan-3-yl)sulfanyl]ethylidenedioxy-pregn-4-ene-3,20-dione], the EC50 [1] was under 250 nM, the half-life at 49.5 µg/mL [2] was under 10 min and the “Hydrolysis by human serum paraoxonase” value (human serum paraoxonase) was “hydrolysed”. For the same compound, the half-life at 45 µg/mL [3] was over 60 min.
